Where two headings read alike, the source gives them in different places. Where a SMILES comes first, the peptide text is derived from it. Bridges are numbered along the chain shown (N, C = ends). [ ]: non-standard residue; d: D form. Phe(4-COOH) = N[C@@H](Cc1ccc(C(=O)O)cc1)C(=O)O; Phe(3,4-F2) = N[C@@H](Cc1ccc(F)c(F)c1)C(=O)O; R8 = C=CCCCCCC[C@@](C)(N)C(=O)O; Cba = N[C@@H](CC1CCC1)C(=O)O; S5 = C=CCCC[C@](C)(N)C(=O)O; Nle = CCCC[C@H](N)C(=O)O
Assays:
MDM2 = MDM2 (Homo sapiens, UniProt Q00987); assay: Competitive fluorescence polarization assay for MDM2; format: binding; settings: competitive FP assay, MDM2
MDMX = biological target: T1, MDMX (Homo sapiens, UniProt O15151); assay: Competitive fluorescence polarization assay for MDMX; format: binding; settings: competitive FP assay
T1 sequence (O15151 1-125): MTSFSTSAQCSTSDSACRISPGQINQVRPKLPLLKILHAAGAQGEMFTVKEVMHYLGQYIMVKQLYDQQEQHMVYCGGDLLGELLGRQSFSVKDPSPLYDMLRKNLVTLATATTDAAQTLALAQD

Caspase 3 = Caspase 3 detection assay in SJSA1 cells; format: cell-based; settings: 48 h, Caspase 3 activation over DMSO-treated cells; for caspase 0.3 uM: 0.3 uM peptide; for caspase 3 uM: 3 uM peptide; for caspase 10 uM: 10 uM peptide; for caspase 30 uM: 30 uM peptide
SJSA-1 cells = assay: Cell lysis by peptidomimetic macrocycles (LDH release); format: cell-based; settings: 1 h at 37C

Sequence of MDM2 (Q00987 1-125): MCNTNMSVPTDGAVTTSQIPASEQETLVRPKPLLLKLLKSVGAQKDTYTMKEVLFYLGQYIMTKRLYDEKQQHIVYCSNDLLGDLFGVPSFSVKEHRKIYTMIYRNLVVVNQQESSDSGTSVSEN

Compound | IC50 (MDM2; read-out: IC50 (MDM2)) | Ki (MDM2; read-out: Ki (MDM2)) | IC50 (MDMX; read-out: IC50 (MDMX)) | Ki (MDMX; read-out: Ki (MDMX)) | caspase 0.3 uM (Caspase 3) | caspase 3 uM (Caspase 3) | caspase 10 uM (Caspase 3) | caspase 30 uM (Caspase 3) | 6.25 uM % Lysed cells (1 h LDH) (SJSA-1 cells) | 25 uM % Lysed cells (1 h LDH) (SJSA-1 cells) | 50 uM % Lysed cells (1 h LDH) (SJSA-1 cells) | IC50 (MDM2; IC50 (MDM2)) | Ki (MDM2; Ki (MDM2)) | IC50 (MDMX; IC50 (MDMX)) | Ki (MDMX; Ki (MDMX)) | caspase 1 uM (Caspase 3; 1 uM peptide)
CC[C@H](C)[C@H](NC(=O)[C@H](C)NC(=O)[C@H](C)NC(=O)[C@]1(C)CCCC=CCCCCCC[C@@](C)(NC(=O)[C@H](Cc2ccccc2)NC(=O)[C@@H](NC(=O)[C@H](CC(C)C)NC(C)=O)[C@@H](C)O)C(=O)N[C@@H](C)C(=O)N[C@@H](Cc2ccc(O)cc2)C(=O)N[C@@H](Cc2c[nH]c3ccccc23)C(=O)N[C@@H](C)C(=O)N[C@@H](CCC(N)=O)C(=O)N[C@@H](CC(C)C)C(=O)N1)C(=O)N[C@@H](C)C(N)=O (single isomer, unassigned) [compound 65] | 10 to 100 nM | < 10 nM | 100 to 1000 nM | 10 to 100 nM | 1 | 6 | 28 | 34 | 0% | 0% | 2% |  |  |  |  | 
CC(=O)N[C@@H](CC(C)C)C(=O)N[C@H](C(=O)N[C@@H](Cc1ccccc1)C(=O)N[C@]1(C)CCCCCCC=CCCC[C@@](C)(C(=O)N[C@@H](CO)C(=O)NC(C)(C)C(=O)N[C@@H](C)C(=O)N[C@@H](C)C(N)=O)NC(=O)[C@H](CC(C)C)NC(=O)[C@H](CCC(N)=O)NC(=O)[C@H](C)NC(=O)[C@H](Cc2c[nH]c3ccccc23)NC(=O)[C@H](Cc2ccc(O)cc2)NC(=O)[C@H](C)NC1=O)[C@@H](C)O (single isomer, unassigned) [compound 26] | 10 to 100 nM | < 10 nM | 100 to 1000 nM | 10 to 100 nM | 1 | 1 | 3 | 14 | 2% | −1% | 0% |  |  |  |  | 
CC(=O)N[C@@H](CC(C)C)C(=O)N[C@H](C(=O)N[C@@H](Cc1ccccc1)C(=O)N[C@]1(C)CCCCCCC=CCCC[C@@](C)(C(=O)N[C@@H](CO)C(=O)N[C@@H](C)C(=O)N[C@@H](C)C(N)=O)NC(=O)[C@H](CC(C)C)NC(=O)[C@H](C)NC(=O)[C@H](C)NC(=O)[C@H](Cc2c[nH]c3ccccc23)NC(=O)[C@H](Cc2c[nH]cn2)NC(=O)[C@H](C)NC1=O)[C@@H](C)O [compound 197] (Ac-LTF[R8]AHWAAL[S5]SAA-NH2; staple 4-11) |  |  |  |  | 1 | 1 | 10 | 20 | 1% | −1% | −2% | < 10 nM | < 10 nM | 100 to 1000 nM | 10 to 100 nM | 
CCCC[C@H](NC(=O)[C@H](C)NC(=O)[C@H](C)NC(=O)[C@]1(C)CCCC=CCCCCCC[C@@](C)(NC(=O)[C@H](Cc2ccccc2)NC(=O)[C@@H](NC(=O)[C@H](CC(C)C)NC(C)=O)[C@@H](C)O)C(=O)N[C@@H](C)C(=O)N[C@@H](Cc2ccc(O)cc2)C(=O)N[C@@H](Cc2c[nH]c3ccccc23)C(=O)N[C@@H](C)C(=O)N[C@@H](C)C(=O)N[C@@H](CC(C)C)C(=O)N1)C(=O)N[C@@H](C(N)=O)C(C)C (single isomer, unassigned) [compound 80] | 10 to 100 nM | < 10 nM | 100 to 1000 nM | 10 to 100 nM | 1 | 2 | 13 | 20 | 0% | 1% | 5% |  |  |  |  | 
CCCC[C@H](NC(=O)[C@H](C)NC(=O)[C@H](CO)NC(=O)[C@]1(C)CCCC=CCCCCCC[C@@](C)(NC(=O)[C@H](Cc2ccc(F)c(F)c2)NC(=O)[C@@H](NC(=O)[C@H](CC(C)C)NC(C)=O)[C@@H](C)O)C(=O)N[C@@H](CCC(=O)O)C(=O)N[C@@H](Cc2ccc(O)cc2)C(=O)N[C@@H](Cc2c[nH]c3ccccc23)C(=O)N[C@@H](C)C(=O)N[C@@H](CCC(N)=O)C(=O)N[C@@H](CC2CCC2)C(=O)N1)C(=O)N[C@@H](C)C(N)=O [compound 243] (Ac-LT[Phe(3,4-F2)][R8]EYWAQ[Cba][S5]SA[Nle]A-NH2; staple 4-11) | 10 to 100 nM | < 10 nM | 10 to 100 nM | 10 to 100 nM | 1 | 2 | 5 | 23 | 4% | 39% | 64% |  |  |  |  | 

Now from value to compound, other results behind:

IC50 (MDM2; read-out: IC50 (MDM2)) | Ki (MDM2; read-out: Ki (MDM2)) | IC50 (MDMX; read-out: IC50 (MDMX)) | Ki (MDMX; read-out: Ki (MDMX)) | Compound | caspase 0.3 uM (Caspase 3) | caspase 3 uM (Caspase 3) | caspase 10 uM (Caspase 3) | caspase 30 uM (Caspase 3) | 6.25 uM % Lysed cells (1 h LDH) (SJSA-1 cells) | 25 uM % Lysed cells (1 h LDH) (SJSA-1 cells) | 50 uM % Lysed cells (1 h LDH) (SJSA-1 cells) | IC50 (MDM2; IC50 (MDM2)) | Ki (MDM2; Ki (MDM2)) | IC50 (MDMX; IC50 (MDMX)) | Ki (MDMX; Ki (MDMX)) | caspase 1 uM (Caspase 3; 1 uM peptide)
10 to 100 nM | < 10 nM | 10 to 100 nM | 10 to 100 nM | CC[C@H](C)[C@H](NC(=O)[C@H](C)NC(=O)[C@H](C)NC(=O)[C@]1(C)CCCC=CCCCCCC[C@@](C)(NC(=O)[C@H](Cc2ccccc2)NC(=O)[C@@H](NC(=O)[C@H](CC(C)C)NC(C)=O)[C@@H](C)O)C(=O)N[C@@H](CCC(=O)O)C(=O)N[C@@H](Cc2ccc(O)cc2)C(=O)N[C@@H](Cc2c[nH]c3ccccc23)C(=O)N[C@@H](C)C(=O)N[C@@H](CCC(N)=O)C(=O)N[C@@H](CC2CCC2)C(=O)N1)C(=O)N[C@H](C)C(N)=O [compound 247] (Ac-LTF[R8]EYWAQ[Cba][S5]AAI[dA]-NH2; staple 4-11) | 1 | 3 | 11 | 24 | 0% | 0% | 4% |  |  |  |  | 
10 to 100 nM | < 10 nM | 10 to 100 nM | 10 to 100 nM | CCCC[C@H](NC(=O)[C@H](C)NC(=O)[C@H](CO)NC(=O)[C@]1(C)CCCC=CCCCCCC[C@@](C)(NC(=O)[C@H](Cc2ccccc2)NC(=O)[C@@H](NC(=O)[C@H](CC(C)C)NC(C)=O)[C@@H](C)O)C(=O)N[C@@H](CCC(=O)O)C(=O)N[C@@H](Cc2ccc(O)cc2)C(=O)N[C@@H](Cc2c[nH]c3ccccc23)C(=O)N[C@@H](CO)C(=O)N[C@@H](CCC(N)=O)C(=O)N[C@@H](CC2CCC2)C(=O)N1)C(=O)N[C@@H](C)C(N)=O [compound 245] (Ac-LTF[R8]EYWSQ[Cba][S5]SA[Nle]A-NH2; staple 4-11) | 1 | 3 | 9 | 16 | 1% | 11% | 56% |  |  |  |  | 
< 10 nM | < 10 nM | 10 to 100 nM | < 10 nM | CC(=O)N[C@@H](CC(C)C)C(=O)N[C@H](C(=O)N[C@@H](Cc1ccccc1)C(=O)N[C@]1(C)CCCCCC/C=C/CCC[C@@](C)(C(=O)N[C@@H](C)C(=O)N[C@@H](C)C(=O)N[C@@H](C)C(=O)N[C@@H](C)C(=O)N[C@@H](C)C(=O)N[C@H](C)C(N)=O)NC(=O)[C@H](CC2CCC2)NC(=O)[C@H](CCC(N)=O)NC(=O)[C@H](C)NC(=O)[C@H](Cc2c[nH]c3ccccc23)NC(=O)[C@H](Cc2ccc(C(=O)O)cc2)NC(=O)[C@H](CCC(=O)O)NC1=O)[C@@H](C)O [compound 349] (Ac-LTF[R8]E[Phe(4-COOH)]WAQ[Cba][S5]AAAAA[dA]-NH2; staple (E) 4-11) | 1 | 11 | 16 | 24 | 0% | 0% | 0% |  |  |  |  | 8
< 10 nM | < 10 nM | 100 to 1000 nM | 10 to 100 nM | CC(=O)N[C@@H](CC(C)C)C(=O)N[C@H](C(=O)N[C@@H](Cc1ccccc1)C(=O)N[C@]1(C)CCCCCCC=CCCC[C@@](C)(C(=O)N[C@@H](CO)C(=O)N[C@@H](C)C(=O)N[C@@H](CO)C(N)=O)NC(=O)[C@H](CC(C)C)NC(=O)[C@H](CCC(N)=O)NC(=O)[C@H](C)NC(=O)[C@H](Cc2c[nH]c3ccccc23)NC(=O)[C@H](Cc2ccc(O)cc2)NC(=O)[C@H](C)NC1=O)[C@@H](C)O [compound 122] (Ac-LTF[R8]AYWAQL[S5]SAS-NH2; staple 4-11) | 1 | 2 | 15 | 30 | 1% | 0% | 6% |  |  |  |  | 
< 10 nM | < 10 nM | 100 to 1000 nM | 10 to 100 nM | CC(=O)N[C@@H](CC(C)C)C(=O)N[C@H](C(=O)N[C@@H](Cc1ccc(F)c(F)c1)C(=O)N[C@]1(C)CCCCCCC=CCCC[C@@](C)(C(=O)N[C@@H](CO)C(=O)N[C@@H](C)C(=O)N[C@@H](C)C(N)=O)NC(=O)[C@H](CC(C)C)NC(=O)[C@H](CCC(N)=O)NC(=O)[C@H](C)NC(=O)[C@H](Cc2c[nH]c3ccccc23)NC(=O)[C@H](Cc2ccc(O)cc2)NC(=O)[C@H](CCC(=O)O)NC1=O)[C@@H](C)O (single isomer, unassigned) [compound 158] | 1 |  | 5 | 16.33 | 0% | −2% |  |  |  |  |  | 

From US8927500B2, “Peptidomimetic macrocycles” (Aileron Therapeutics, Inc., priority 2012, dated 2015)
